Data from patent US20250136595A1, “ACYLATED HETEROCYCLIC QUINAZOLINE DERIVATIVES AS INHIBITORS OF ERBB2” (Enliven Inc., priority 2022, published 2025).

Tests used:
Ba/F3 ERBB2 YVMA = Ba/F3 ERBB2 YVMA (Homo sapiens, UniProt P04626, DUP772-775, cells depend on it); test: Cell viability assay (CellTiter Glo) in Ba/F3 cells engineered to express ERBB2 YVMA; type: cell-based, mouse; settings: Ba/F3 cells expressing human ERBB2 YVMA mutant, 72 hours, % viability, read-out: Ba/F3 ERBB2 YVMA IC50
In short: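 IL-3-independent mouse Ba/F3 line stably transduced with human ERBB2 YVMA, seeded at 3000 cells/well, exposed to serially diluted compound (≤0.1% DMSO) for 72 h at 37° C. ATP read by CellTiter Glo luminescence, normalised to DMSO and media-only controls; sigmoidal nonlinear regression fit.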

[1] = target: T1, phosphorylated ERBB2 (pERBB2) (Homo sapiens, UniProt P04626); test: Detection of phosphorylated ERBB2 (pERBB2) by ELISA in BT-474 cells; type: cell-based; settings: four hour incubation with compound
T1 construct: endogenous in cells; host or cells: BT-474
In short: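 BT-474 cells treated 4 h at 37 °C, 5% CO2 with four-fold dilutions (10 μM to 0.01 nM final). Lysates analysed by ELISA for pERBB2, TMB read at OD 450 nm. % relative activity normalised to no-cell (low) and 0.1% DMSO-treated (high) controls.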

[2] = target: T2, phosphorylated EGFR (pEGFR) (Homo sapiens, UniProt P00533); test: Detection of phosphorylated EGFR (pEGFR) in EGF-stimulated A431 cells (AlphaLISA); type: cell-based; settings: A431 cells (10% FBS), 4 hours incubation, EGF 30 ng/mL for 10 minutes
T2 construct: performed to measure phosphorylated EGFR levels using A431 cells; endogenous in cells; host or cells: A431
In short: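 Cells in 10% FBS treated with compound 4 h at 37° C., then stimulated 10 min with 30 ng/mL EGF, lysed, and pEGFR measured by AlphaLISA. Inhibition normalized to DMSO and staurosporine controls; IC50 from four-parameter logistic fit.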

Chain of Ba/F3 ERBB2 YVMA (P04626 with tags, fused parts or gaps DUP772-775): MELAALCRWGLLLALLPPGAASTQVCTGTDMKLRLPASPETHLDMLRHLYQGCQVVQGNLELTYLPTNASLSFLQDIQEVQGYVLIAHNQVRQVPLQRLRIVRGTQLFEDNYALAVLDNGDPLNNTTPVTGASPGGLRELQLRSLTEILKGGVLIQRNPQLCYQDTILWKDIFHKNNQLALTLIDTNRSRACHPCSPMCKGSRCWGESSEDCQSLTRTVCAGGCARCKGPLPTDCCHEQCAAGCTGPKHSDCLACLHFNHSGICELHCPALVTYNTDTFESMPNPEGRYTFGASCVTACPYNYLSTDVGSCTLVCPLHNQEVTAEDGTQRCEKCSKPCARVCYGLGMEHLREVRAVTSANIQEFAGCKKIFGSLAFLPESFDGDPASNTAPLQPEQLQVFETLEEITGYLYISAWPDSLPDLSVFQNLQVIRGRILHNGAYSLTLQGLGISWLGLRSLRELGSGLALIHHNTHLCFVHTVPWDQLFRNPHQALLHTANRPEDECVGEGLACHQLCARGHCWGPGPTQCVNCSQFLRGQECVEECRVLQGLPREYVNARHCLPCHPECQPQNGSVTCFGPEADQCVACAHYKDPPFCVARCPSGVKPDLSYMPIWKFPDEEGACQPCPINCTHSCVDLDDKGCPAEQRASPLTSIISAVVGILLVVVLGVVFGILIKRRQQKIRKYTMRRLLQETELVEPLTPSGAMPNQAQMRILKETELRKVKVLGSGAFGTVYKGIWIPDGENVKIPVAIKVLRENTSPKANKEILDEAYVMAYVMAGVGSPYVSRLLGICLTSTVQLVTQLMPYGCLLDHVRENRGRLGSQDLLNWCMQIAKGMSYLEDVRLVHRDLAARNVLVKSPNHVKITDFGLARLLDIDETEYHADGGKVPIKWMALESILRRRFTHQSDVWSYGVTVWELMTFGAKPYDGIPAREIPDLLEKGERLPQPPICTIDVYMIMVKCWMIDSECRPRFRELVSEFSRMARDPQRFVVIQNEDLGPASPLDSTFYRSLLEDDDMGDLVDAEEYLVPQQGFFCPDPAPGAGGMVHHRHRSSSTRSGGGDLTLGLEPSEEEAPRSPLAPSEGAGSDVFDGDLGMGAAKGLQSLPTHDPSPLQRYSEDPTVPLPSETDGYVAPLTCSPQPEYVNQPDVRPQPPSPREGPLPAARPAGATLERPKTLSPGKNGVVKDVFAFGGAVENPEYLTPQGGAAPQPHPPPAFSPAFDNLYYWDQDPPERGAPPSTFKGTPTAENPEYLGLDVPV
T1 sequence (P04626 23-1255): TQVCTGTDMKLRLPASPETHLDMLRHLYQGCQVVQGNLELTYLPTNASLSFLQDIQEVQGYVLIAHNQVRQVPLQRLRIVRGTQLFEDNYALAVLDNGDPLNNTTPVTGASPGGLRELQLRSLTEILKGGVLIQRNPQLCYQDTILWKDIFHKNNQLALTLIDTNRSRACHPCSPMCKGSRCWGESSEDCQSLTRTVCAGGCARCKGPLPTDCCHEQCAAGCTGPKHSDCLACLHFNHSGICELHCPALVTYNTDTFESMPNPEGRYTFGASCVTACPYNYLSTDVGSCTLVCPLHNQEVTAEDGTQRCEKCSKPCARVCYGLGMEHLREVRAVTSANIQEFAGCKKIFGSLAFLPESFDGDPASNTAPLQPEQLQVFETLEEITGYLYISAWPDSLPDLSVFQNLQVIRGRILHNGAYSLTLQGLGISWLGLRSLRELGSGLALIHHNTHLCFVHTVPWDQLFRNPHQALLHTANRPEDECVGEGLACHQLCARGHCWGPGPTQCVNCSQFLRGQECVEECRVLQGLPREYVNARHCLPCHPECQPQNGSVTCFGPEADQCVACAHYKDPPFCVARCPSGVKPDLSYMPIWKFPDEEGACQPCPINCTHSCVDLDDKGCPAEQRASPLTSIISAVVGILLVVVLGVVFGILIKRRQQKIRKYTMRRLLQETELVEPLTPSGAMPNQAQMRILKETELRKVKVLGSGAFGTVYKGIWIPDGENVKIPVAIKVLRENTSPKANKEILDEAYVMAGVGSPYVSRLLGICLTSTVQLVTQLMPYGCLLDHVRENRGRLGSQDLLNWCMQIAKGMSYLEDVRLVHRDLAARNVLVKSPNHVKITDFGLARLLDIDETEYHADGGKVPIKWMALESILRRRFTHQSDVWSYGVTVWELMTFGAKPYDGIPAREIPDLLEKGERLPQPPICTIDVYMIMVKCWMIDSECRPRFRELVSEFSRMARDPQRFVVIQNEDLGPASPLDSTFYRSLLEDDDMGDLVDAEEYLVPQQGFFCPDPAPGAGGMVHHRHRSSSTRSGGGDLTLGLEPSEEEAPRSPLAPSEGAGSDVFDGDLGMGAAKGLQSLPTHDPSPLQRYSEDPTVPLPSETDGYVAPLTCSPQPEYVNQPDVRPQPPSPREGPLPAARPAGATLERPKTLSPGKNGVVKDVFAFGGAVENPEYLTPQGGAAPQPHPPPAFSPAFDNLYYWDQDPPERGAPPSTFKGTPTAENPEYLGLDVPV
T2 sequence (P00533 25-1210): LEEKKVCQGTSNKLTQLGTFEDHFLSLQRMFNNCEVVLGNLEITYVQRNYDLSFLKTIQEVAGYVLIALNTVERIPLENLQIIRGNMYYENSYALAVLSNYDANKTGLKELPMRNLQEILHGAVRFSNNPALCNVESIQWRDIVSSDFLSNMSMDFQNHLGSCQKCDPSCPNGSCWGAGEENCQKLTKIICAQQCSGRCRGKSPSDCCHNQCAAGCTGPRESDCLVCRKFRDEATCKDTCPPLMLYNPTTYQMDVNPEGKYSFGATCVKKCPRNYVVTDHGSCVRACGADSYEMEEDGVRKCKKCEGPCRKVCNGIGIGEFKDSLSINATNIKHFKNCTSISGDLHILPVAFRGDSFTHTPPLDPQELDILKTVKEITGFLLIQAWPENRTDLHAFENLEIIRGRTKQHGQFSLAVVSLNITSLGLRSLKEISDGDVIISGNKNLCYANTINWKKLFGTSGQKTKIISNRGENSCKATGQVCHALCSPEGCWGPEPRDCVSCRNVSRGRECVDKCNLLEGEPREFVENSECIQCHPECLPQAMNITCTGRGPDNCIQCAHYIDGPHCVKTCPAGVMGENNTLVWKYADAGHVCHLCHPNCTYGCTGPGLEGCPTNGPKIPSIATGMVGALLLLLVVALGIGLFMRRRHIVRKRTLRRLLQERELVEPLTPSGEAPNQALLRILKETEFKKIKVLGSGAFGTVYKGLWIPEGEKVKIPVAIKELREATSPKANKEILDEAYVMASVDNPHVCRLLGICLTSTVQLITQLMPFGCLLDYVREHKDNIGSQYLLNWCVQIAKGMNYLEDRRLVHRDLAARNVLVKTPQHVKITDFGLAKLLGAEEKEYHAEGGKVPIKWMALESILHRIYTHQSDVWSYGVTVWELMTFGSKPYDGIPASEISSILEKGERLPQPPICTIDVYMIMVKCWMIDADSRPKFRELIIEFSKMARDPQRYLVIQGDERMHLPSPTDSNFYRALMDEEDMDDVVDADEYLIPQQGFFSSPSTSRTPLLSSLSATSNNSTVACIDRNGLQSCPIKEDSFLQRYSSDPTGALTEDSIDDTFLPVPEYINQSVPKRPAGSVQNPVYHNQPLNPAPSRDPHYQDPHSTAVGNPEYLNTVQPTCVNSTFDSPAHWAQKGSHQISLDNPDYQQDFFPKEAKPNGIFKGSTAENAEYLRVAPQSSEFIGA

Compound	GI50 (Ba/F3 ERBB2 YVMA) [nM]	IC50 [1] [nM]	IC50 [2] [nM]
CC#CC(=O)N1CCN(c2ccc3ncnc(Nc4ccc(O[C@H]5CCCOC5)c(C)c4)c3n2)CC1 [Compound 33, 1-{4-[4-({3-methyl-4-[(3S)-oxan-3-yloxy]phenyl}amino)pyrido[3,2-d]pyrimidin-6-yl]piperazin-1-yl}but-2-yn-1-one]	237	524	4050
C=CC(=O)N1CCN(c2ccc3ncnc(Nc4ccc(Cc5ccn6ncnc6c5)c(C)c4)c3n2)CC12CC2 [Compound 129, 1-(7-{4-[(3-methyl-4-{[1,2,4]triazolo[1,5-a]pyridin-7-ylmethyl}phenyl)amino]pyrido[3,2-d]pyrimidin-6-yl}-4,7-diazaspiro[2.5]octan-4-yl)prop-2-en-1-one]	5.32	21.5	317
C=CC(=O)N1CCN(c2ccc3ncnc(Nc4ccc(Oc5ccc6c(c5)ncn6C)c(C)c4)c3n2)[C@@H](C)C1 [Compound 67, 1-[(3S)-3-methyl-4-[4-({3-methyl-4-[(1-methyl-1,3-benzodiazol-5-yl)oxy]phenyl}amino)pyrido[3,2-d]pyrimidin-6-yl]piperazin-1-yl]prop-2-en-1-one]	13.9	28.2	2490
C=CC(=O)N1CCN(c2ncc3ncnc(Nc4ccc(Cc5ccc6c(c5)ncn6C)c(C)c4)c3n2)C[C@H]1C [Compound 96, (R)-1-(2-methyl-4-(8-((3-methyl-4-((1-methyl-1H-benzo[d]imidazol-5-yl)methyl)phenyl)amino)pyrimido[5,4-d]pyrimidin-2-yl)piperazin-1-yl)prop-2-en-1-one]	12.5	63.1	7290
C=CC(=O)N1CC2CC1CN2c1ccc2ncnc(Nc3ccc(Cc4ccn5ncnc5c4)c(C)c3)c2n1 (stereo not drawn) [Compound 128, 1-(5-(4-((4-([1,2,4]triazolo[1,5-a]pyridin-7-ylmethyl)-3-methylphenyl)amino)pyrido[3,2-d]pyrimidin-6-yl)-2,5-diazabicyclo[2.2.1]heptan-2-yl)prop-2-en-1-one]	7.45	19.8	530
C=CC(=O)N1CCC(Nc2ccc3ncnc(Nc4ccc(Oc5ccn6ncnc6c5)c(C)c4)c3n2)CC1 [Compound 40, 1-[4-({4-[(3-methyl-4-{[1,2,4]triazolo[1,5-a]pyridin-7-yloxy}phenyl)amino]pyrido[3,2-d]pyrimidin-6-yl}amino)piperidin-1-yl]prop-2-en-1-one]	5.81	6.1	22
C=CC(=O)N1CCN(c2ccc3ncnc(Nc4ccc(CN5CCn6ncnc6C5)c(C)c4)c3c2)CC1 [Compound 101, 1-(4-{4-[(3-methyl-4-{5H,6H,8H-[1,2,4]triazolo[1,5-a]pyrazin-7-ylmethyl}phenyl)amino]quinazolin-6-yl}piperazin-1-yl)prop-2-en-1-one]	> 500	99	> 10000
CC#CC(=O)N1CC2CC1CN2c1ccc2ncnc(Nc3ccc(Oc4ccn5ncnc5c4)c(C)c3)c2n1 (stereo not drawn) [Compound 30, 1-(5-(4-((4-([1,2,4]triazolo[1,5-a]pyridin-7-yloxy)-3-methylphenyl)amino)pyrido[3,2-d]pyrimidin-6-yl)-2,5-diazabicyclo[2.2.1]heptan-2-yl)but-2-yn-1-one]	21.2	61.4	2430
C=CC(=O)N1CCN(c2cc3c(Nc4ccc(OC5CCN(C(=O)C6CCCC6)CC5)c(C)c4)ncnc3cn2)CC1 [Compound 2, 1-(4-(4-((4-((1-(cyclopentanecarbonyl)piperidin-4-yl)oxy)-3-methylphenyl)amino)pyrido[3,4-d]pyrimidin-6-yl)piperazin-1-yl)prop-2-en-1-one]	20.3	48.2	2690
CC#CC(=O)N1CCN(c2ccc3ncnc(Nc4ccc(Oc5ccn6ncnc6c5)c(C)c4)c3n2)[C@H](C)C1 [Compound 24, 1-[(3R)-3-methyl-4-{4-[(3-methyl-4-{[1,2,4]triazolo[1,5-a]pyridin-7-yloxy}phenyl)amino]pyrido[3,2-d]pyrimidin-6-yl}piperazin-1-yl]but-2-yn-1-one]	68.9	91.4	> 10000
C=CC(=O)N1CCN(c2ccc3ncnc(Nc4ccc(Oc5ccn6ncnc6c5)c(C)c4)c3c2F)C[C@H]1C [Compound 63, (R)-1-(4-(4-((4-([1,2,4]triazolo[1,5-a]pyridin-7-yloxy)-3-methylphenyl)amino)-5-fluoroquinazolin-6-yl)-2-methylpiperazin-1-yl)prop-2-en-1-one]	10.5	21.4	5500
Cc1cc(Nc2ncnc3ccc(N4CCN(C(=O)/C=C/CN(C)C)[C@H](C)C4)nc23)ccc1Cc1ccn2ncnc2c1 [Compound 117, (R,E)-1-(4-(4-((4-([1,2,4]triazolo[1,5-a]pyridin-7-ylmethyl)-3-methylphenyl)amino)pyrido[3,2-d]pyrimidin-6-yl)-2-methylpiperazin-1-yl)-4-(dimethylamino)but-2-en-1-one]	25.1	24.5	> 10000
C=CC(=O)N1CCN(c2ncc3ncnc(Nc4ccc(Cc5ccn6ncnc6c5)c(C)c4)c3n2)[C@@H](C)C1 [Compound 113, 1-[(3S)-3-methyl-4-{8-[(3-methyl-4-{[1,2,4]triazolo[1,5-a]pyridin-7-ylmethyl}phenyl)amino]pyrimido[5,4-d][1,3]diazin-2-yl}piperazin-1-yl]prop-2-en-1-one]	8.87	31.9	> 10000
C=CC(=O)N1CCN(c2ccc3ncnc(Nc4ccc(Cc5ccn6ncnc6c5)c(C)c4)c3c2F)C[C@H]1C [Compound 62, 1-[(2R)-4-{5-fluoro-4-[(3-methyl-4-{[1,2,4]triazolo[1,5-a]pyridin-7-ylmethyl}phenyl)amino]quinazolin-6-yl}-2-methylpiperazin-1-yl]prop-2-en-1-one]	22.7	46.9	> 10000
Cc1cc(Nc2ncnc3ccc(N4CCN(C(=O)/C=C/CN(C)C)CC4)nc23)ccc1Cc1ccc2c(c1)ncn2C [Compound 120, (E)-4-(dimethylamino)-1-(4-(4-((3-methyl-4-((1-methyl-1H-benzo[d]imidazol-5-yl)methyl)phenyl)amino)pyrido[3,2-d]pyrimidin-6-yl)piperazin-1-yl)but-2-en-1-one]	7.1	36.5	2080
C=CC(=O)N1CCN(c2ccc3ncnc(Nc4ccc(Oc5ccn6ncnc6c5)c(C)c4)c3n2)CC1 [Compound 4, 1-(4-{4-[(3-methyl-4-{[1,2,4]triazolo[1,5-a]pyridin-7-yloxy}phenyl)amino]pyrido[3,2-d]pyrimidin-6-yl}piperazin-1-yl)prop-2-en-1-one]	8.19	8.44	371
CC#CC(=O)N1CCN(c2ncc3ncnc(Nc4ccc(Oc5ccc6c(c5)ncn6C)c(C)c4)c3n2)C[C@H]1C [Compound 72, (R)-1-(2-methyl-4-(8-((3-methyl-4-((1-methyl-1H-benzo[d]imidazol-5-yl)oxy)phenyl)amino)pyrimido[5,4-d]pyrimidin-2-yl)piperazin-1-yl) but-2-yn-1-one]	10.1	67.9	2680
C=CC(=O)N1CCN(c2cc3c(Nc4ccc(OC5CCN(C(=O)CC(C)(C)C)CC5)c(C)c4)ncnc3cn2)CC1 [Compound 3, 3,3-dimethyl-1-{4-[2-methyl-4-({6-[4-(prop-2-enoyl)piperazin-1-yl]pyrido[3,4-d]pyrimidin-4-yl}amino)phenoxy]piperidin-1-yl}butan-1-one]	40.2	43	1680
C=CC(=O)N1CCN(c2ccc3ncnc(Nc4ccc(Oc5ccn6ncnc6c5)c(C)c4)c3c2)[C@@H](C)C1 [Compound 90, (S)-1-(4-(4-((4-([1,2,4]triazolo[1,5-a]pyridin-7-yloxy)-3-methylphenyl)amino)quinazolin-6-yl)-3-methylpiperazin-1-yl)prop-2-en-1-one]	12	14.4	3230
C=CC(=O)N1C2CC1CN(c1ccc3ncnc(Nc4ccc(Oc5ccn6ncnc6c5)c(C)c4)c3n1)C2 [Compound 15, 1-(3-{4-[(3-methyl-4-{[1,2,4]triazolo[1,5-a]pyridin-7-yloxy}phenyl)amino]pyrido[3,2-d]pyrimidin-6-yl}-3,6-diazabicyclo[3.1.1]heptan-6-yl)prop-2-en-1-one]	17.4	19.8	629
C=CC(=O)N1CCN(c2ccc3ncnc(Nc4ccc(Oc5ccc6c(c5)ncn6C)c(C)c4)c3n2)C[C@@H]1C [Compound 47, 1-[(2S)-2-methyl-4-[4-({3-methyl-4-[(1-methyl-1,3-benzodiazol-5-yl)oxy]phenyl}amino)pyrido[3,2-d]pyrimidin-6-yl]piperazin-1-yl]prop-2-en-1-one]	14	30	2440
C=CC(=O)N1CCN(c2ncc3ncnc(Nc4ccc(Oc5ccc6c(c5)ncn6C)c(C)c4)c3n2)C[C@H]1C [Compound 57, (R)-1-(2-methyl-4-(8-((3-methyl-4-((1-methyl-1H-benzo[d]imidazol-5-yl)oxy)phenyl)amino)pyrimido[5,4-d]pyrimidin-2-yl)piperazin-1-yl)prop-2-en-1-one]	21	25.8	2880
